Assay results from patent US11365215B2, “Method for preventing, improving, or treating inflammatory bowel disease” (Research & Business Foundation Sungkyunkwan University, priority 2015, dated 2022).
Peptide text beside a SMILES is read from it.

Assays:
[1] = system: NF-κB; test: 5×NF-κB-Luc reporter luciferase assay in LPS-treated RAW 264.7 cells; format: cell-based; details: 100 nM for 30 minutes, LPS 100 ng/ml two hours
Procedure: Specifically, 5×NF-κB-Luc reporter plasmid was transfected into RAW 264.7 cells using Effectene (Qiagen, USA). The transfected cells were pretreated with 100 nM of compound 1.1 (SEQ ID NO: 2) for 30 minutes, and further treated with LPS (100 ng/ml) for two hours, and luciferase activity in the cells was measured (FIG. 4 depicts a graph showing relative inhibition activities of compound 1.1 (SEQ ID NO: 2) and compound 1.2 to NF-κB activation). When the cells were treated with compound 1.1 (SEQ ID NO: 2) and compound 1.2 according to the present invention, activation of NF-κB, which was induced by LPS, was inhibited (FIG. 4).
In addition, 5×NF-κB-Luc reporter plasmid was transfected into RAW 264.7 macrophage cells and treated with compounds of the present invention, as described above. After 24 hours of the transfection, the cells were pretreated with DMSO (control), compound 1.1 (SEQ ID NO: 2), reference compound 1 (SEQ ID NO: 16) (compound where palmitic acid is removed from compound 1.1 (SEQ ID NO: 2)), and smaducin-6 were treated at various concentrations of 100 pM, 1 nM, and 100 nM for 30 minutes, and then the cells were treated with 100 ng/ml of LPS for two hours.
Specifically, 5×NF-κB-Luc reporter plasmid, SBE-Luc reporter plasmid, and BRE-Luc reporter plasmid were individually transfected into Raw 264.7 macrophage cells. After 24 hours, the cells transfected with the NF-κB-Luc reporter plasmid were treated with 100 ng/mL of LPS, the cells transfected with the SBE-Luc reporter plasmid were treated with 5 ng/mL of TFG-β1, and the cells transfected with the BRE-Luc reporter plasmid were treated with 100 ng/mL of BMP6 for two hours.
As described in Example 2.3, 5×NF-κB-Luc reporter plasmid was transfected into RAW 246.7 macrophage cells. After 24 hours, the cells transfected with NF-κB-Luc reporter plasmid were pretreated with compound 1.1 (SEQ ID NO: 2) (100 nM), interleukin-1-receptor-associated-kinase-1/4 inhibitor (IRAK1/4) inhibitor (25 μM, CAS 509093-47-4), and smaducin-6 (100 nM) for 30 minutes, and then further treated with LPS (100 ng/ml) for 2 hours. Subsequently, luciferase activities in the cells were measured.

[2] = system: inflammatory signaling pathway protein complex mediated by MyD88 or RIP1; test: Immunoprecipitation of inflammatory signaling pathway protein complex in LPS-treated RAW264.7 cells; format: cell-based; details: pretreated, then LPS
Description: Specifically, using antibodies corresponding to proteins which relate to the formation of Toll-like receptors (TLRs) signaling pathway protein complex (for example, IRAK1, TRAF6, MyD88, RIP1 and Pellino-1), disruption of the formation of inflammatory signaling pathway protein complexes was affirmed by immunoprecipitation. As reference control, a relative amount of expression of β-actin from the total cell lysate was compared and presented using Western blot.
RAW264.7 macrophage cells were individually retreated with compound 1.1 (SEQ ID NO: 2) and compound 1.2, and smaducin-6, and further treated with LPS. These RAW264.7 macrophage cells were collected, lysed in a lysis butter (PBS containing 0.5% Triton X-100, 20 mM HEPES (pH 7.4), 150 mM NaCl, 12.5 mM β-glycerol phosphate, 1.5 mM MgCl2, 10 mM NaF, 2 mM DTT, 1 mM Na3O4V, 2 mM EGTA, and 1 mM Protease Inhibitor (PMSF)), and centrifuged at 13000 rpm for 10 minutes. For immunoprecipitation assays, the supernatant was incubated at 4° C. for 12 hours, with protein-A agarose beads and the antibodies corresponding to the above proteins, and the beads were subsequently washed three times with the lysis buffer. The immunoprecipitated substances were dissociated from the beads with addition of 2× sample buffer, and were boiled. The prepared samples were loaded on SDS-polyacrylamide gel (FIG. 7).

[3] = target: T1, inflammatory signaling pathway complex mediated by MyD88 and RIP1 (Mus musculus, UniProt P22366+Q60855); test: Immunoprecipitation/immunoblot of inflammatory signaling pathway complex in LPS-treated BMDM cells; format: cell-based; details: 100 pM, 1 nM, 100 nM, then 100 ng/mL LPS
T1 construct: endogenous in cells; host or cells: bone-marrow-derived macrophage (BMDM) cells
T1 sequence (P22366 whole entry): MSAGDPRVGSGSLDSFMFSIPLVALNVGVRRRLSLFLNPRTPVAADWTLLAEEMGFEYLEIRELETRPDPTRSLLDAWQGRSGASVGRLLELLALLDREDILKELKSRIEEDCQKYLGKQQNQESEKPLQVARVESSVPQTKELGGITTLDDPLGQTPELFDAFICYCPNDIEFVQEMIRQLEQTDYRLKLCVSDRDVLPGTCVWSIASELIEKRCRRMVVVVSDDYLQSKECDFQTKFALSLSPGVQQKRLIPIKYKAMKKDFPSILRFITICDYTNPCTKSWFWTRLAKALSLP
T1 sequence (Q60855 whole entry): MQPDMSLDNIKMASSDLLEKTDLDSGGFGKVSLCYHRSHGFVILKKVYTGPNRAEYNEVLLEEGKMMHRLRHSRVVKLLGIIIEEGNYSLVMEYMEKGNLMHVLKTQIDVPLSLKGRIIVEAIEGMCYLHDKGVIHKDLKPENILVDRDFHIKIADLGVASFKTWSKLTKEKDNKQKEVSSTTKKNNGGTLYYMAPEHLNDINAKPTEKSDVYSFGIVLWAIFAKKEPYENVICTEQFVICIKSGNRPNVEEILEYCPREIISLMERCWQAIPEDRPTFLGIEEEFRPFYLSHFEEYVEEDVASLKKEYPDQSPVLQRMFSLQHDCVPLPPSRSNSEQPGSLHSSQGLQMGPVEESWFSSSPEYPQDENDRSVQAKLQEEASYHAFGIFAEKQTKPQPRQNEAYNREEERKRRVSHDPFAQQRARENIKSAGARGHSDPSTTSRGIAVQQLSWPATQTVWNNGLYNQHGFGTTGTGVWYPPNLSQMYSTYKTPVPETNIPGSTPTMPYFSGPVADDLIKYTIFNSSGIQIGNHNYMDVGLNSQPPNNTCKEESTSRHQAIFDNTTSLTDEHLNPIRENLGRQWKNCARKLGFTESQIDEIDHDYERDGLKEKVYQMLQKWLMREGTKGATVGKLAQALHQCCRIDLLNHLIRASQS
Procedure: Bone-marrow-derived macrophage (BMDM) cells were individually pretreated with compound 1.1 (SEQ ID NO: 2), reference compound 1 (SEQ ID NO: 16), and smaducin-6 at various concentrations of 100 pM, 1 nM, and 100 nM, and then further treated with 100 ng/mL of LPS.

[4] = system: DSS-induced chronic colitis; test: Disease activity index in DSS-induced chronic colitis model; format: in vivo, Mice (C57BL/6); details: mice
Procedure: Mice (7-8 weeks, female, C57BL/6) were fed 2% DSS polymer (MW of about 50000 Da) in drinking water for 5-7 days, and colitis was induced every 2 to 15 days. Compound 1.1 (SEQ ID NO: 2) was then administered orally to the mice, which had induced chronic colitis by DSS, in an amount of 50 mg/kg, 100 mg/kg, 200 mg/kg and 400 mg/kg, respectively, from the third day after feeding DDS, daily, for 11 days. Body weights, diarrhea and hemafecia of the mice were checked daily and the disease activity indexes were measured (FIG. 10).

[5] = system: MAPK signaling pathway proteins (ERK1/2, JNK, p38); test: Western blot of MAPK signaling pathway protein phosphorylation in LPS-treated BMDM cells; format: cell-based; details: 100 pM, 1 nM, 100 nM, LPS 2 hours
Procedure: BMDM cells were pretreated with DMSO, reference compound 1 (SEQ ID NO: 16), compound 1.1 (SEQ ID NO: 2) and smaducin-6 at various concentrations of 100 pM, 1 nM and 100 nM and then further treated with LPS 2 hours. Thereafter, Western blot analysis was performed.

[6] = system: HRMEC cells; test: VEGF-induced tube formation in HRMEC cells; format: cell-based; details: HRMEC on Matrigel; 20 ng/ml VEGF 4 hours; 50 nM
Procedure: To evaluate the effect of compound 1.1 (SEQ ID NO: 2) on tube formation during angiogenesis, HRMEC cells ([…]) were cultured on Matrigel coated micro slides and treated with 20 ng/ml of VEGF for 4 hours to induce the tube formation. Simultaneously, for reference group, the cells were treated with DMSO, and for experimental group, the cells were treated with 50 nM of compound 1.1 (SEQ ID NO: 2) and 1 uM of calcein-AM. The cells were observed using fluorescence microscope.

In the case of `CCCCCCCCCCCCCCCC(=O)N1CCC[C@H]1C(=O)N1CCC[C@H]1C(=O)NCC(=O)N[C@@H](Cc1ccc(O)cc1)C(=O)O` [compound 1.1, (S)-3-(4-hydroxyphenyl)-2-(2-((S)-1-((S)-1-palmitoylpyrrolidine-2-carbonyl)pyrrolidine-2-carboxamido)acetamido)propanoic acid] (HELM PEPTIDE1{[CCCCCCCCCCCCCCCC(=O)[*:2]].P.P.G.Y}$$$$V2.0), the “inhibition of the activity of NF-κB induced by LPS, dose dependence” value ([1]; 100 pM, 1 nM) is reported as “increased as dose of compound 1.1 (SEQ ID NO: 2) increased”, the “activation of NF-κB induced by LPS (luciferase activity)” value [1] is reported as “inhibited” and the “formation of inflammatory signaling pathway protein complex mediated by MyD88 or RIP1” value [2] is reported as “disrupted”. For the same molecule, the “formation of inflammatory signaling pathway complex mediated by MyD88 and RIP1” value [3] was “further disrupted in an increasing dose dependent manner”, the “disease activity (disease activity index score)” value ([4]; oral 50, 100, 200, 400 mg/kg daily for 11 days) was “decreased as the dose increased” and the “dose at which the decrease in disease activity was saturated” value ([4]; oral daily for 11 days) was 200 mg/kg. The “phosphorylation of MAPK/ERK signaling pathway proteins (ERK1/2, JNK, p38)” value [5] was “not related to suppressing phosphorylation” and the tube formation [6] was “suppressed tube formation”.
